Experimental data reported in ChEMBL document CHEMBL1201862, “PubChem BioAssay data set” (2004).
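Following 48 hours of exposure in 96-well plates, responses at five concentrations were used to interpolate endpoints linearly. GI50 marks 50% less growth.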 Active and inactive are the calls of the source. No stated cut-off is given here; in the data, active = GI50 up to about 1.1 µM and inactive = higher.

Experiments:
Assay in all cases: growth of human tumour cells (NCI), 48 h
IGROV-1 = test system: IGROV-1
OVCAR-3 = test system: OVCAR-3
SR = test system: SR
CCRF-CEM = test system: CCRF-CEM
786-0 = test system: 786-0
UACC-62 = test system: UACC-62
HL-60 = test system: HL-60
COLO 205 = test system: COLO 205
NCI-H23 = test system: NCI-H23
HCT-116 = test system: HCT-116
M14 = test system: M14
U-251 = test system: U-251
NCI-H460 = test system: NCI-H460
OVCAR-4 = test system: OVCAR-4
NCI/ADR-RES = test system: NCI/ADR-RES
PC-3 = test system: PC-3
DU-145 = test system: DU-145
MDA-N = test system: MDA-N

Measured: GI50

c1coc(CNc2[nH]cnc3nncc2-3)c1
inactive: IGROV-1 > 100 µM | OVCAR-3 > 100 µM | SR 57.1 µM | CCRF-CEM > 100 µM | 786-0 > 100 µM | UACC-62 > 100 µM | HL-60 87.9 µM | COLO 205 > 100 µM | NCI-H23 79.6 µM | HCT-116 > 100 µM | M14 > 100 µM | U-251 > 100 µM | NCI-H460 > 100 µM | OVCAR-4 > 100 µM

OCC[N+]12CCCN1CCC2
inactive: IGROV-1 > 100 µM | OVCAR-3 > 100 µM | SR > 100 µM | CCRF-CEM > 100 µM | 786-0 > 100 µM | UACC-62 > 100 µM | HL-60 > 100 µM | COLO 205 > 100 µM | NCI-H23 > 100 µM | HCT-116 > 100 µM | M14 > 100 µM | U-251 > 100 µM | NCI-H460 > 100 µM | OVCAR-4 > 100 µM

COc1cc2c(cc1C1=NC(C)(C)CO1)OCO2
inactive: IGROV-1 > 100 µM | OVCAR-3 > 100 µM | SR > 100 µM | CCRF-CEM > 100 µM | 786-0 > 100 µM | UACC-62 > 100 µM | HL-60 > 100 µM | COLO 205 > 100 µM | NCI-H23 > 100 µM | HCT-116 > 100 µM | M14 > 100 µM | U-251 > 100 µM | NCI-H460 > 100 µM | OVCAR-4 > 100 µM

O=C1C=C(Br)C(=O)C(Br)=C1
inactive: IGROV-1 > 100 µM | OVCAR-3 > 62.2 µM | SR 31.8 µM | CCRF-CEM > 50.1 µM | 786-0 > 100 µM | UACC-62 > 100 µM | HL-60 20.3 µM | COLO 205 > 61.4 µM | NCI-H23 > 100 µM | HCT-116 > 84.9 µM | M14 > 100 µM | U-251 > 100 µM | NCI-H460 > 100 µM | OVCAR-4 > 100 µM

COC1CC(n2ccc(=O)[nH]c2=O)OC1CO (stereo unspecified)
inactive: IGROV-1 > 100 µM | OVCAR-3 > 100 µM | NCI/ADR-RES > 100 µM | SR > 100 µM | CCRF-CEM > 100 µM | PC-3 > 100 µM | 786-0 > 100 µM | UACC-62 > 100 µM | DU-145 > 100 µM | MDA-N > 100 µM | COLO 205 > 100 µM | NCI-H23 > 100 µM | HCT-116 > 100 µM | M14 > 100 µM | U-251 > 100 µM | NCI-H460 > 100 µM | OVCAR-4 > 100 µM

COc1ccc(N2C(=O)C3c4[nH]c5ccccc5c4C4CCCCCCCCCCC4C3C2=O)cc1 (stereo unspecified)
inactive: IGROV-1 > 28.2 µM | OVCAR-3 9.95 µM | SR 10.8 µM | CCRF-CEM 9.27 µM | 786-0 3.65 µM | UACC-62 18.5 µM | HL-60 18.9 µM | COLO 205 14.7 µM | NCI-H23 9.38 µM | HCT-116 5.25 µM | M14 7.8 µM | U-251 7.62 µM | NCI-H460 4.92 µM | OVCAR-4 26.2 µM

Cc1ccc(C(=O)O/N=C2/CCC/C2=C\c2ccccc2)cc1
inactive: IGROV-1 > 100 µM | OVCAR-3 > 100 µM | SR > 100 µM | CCRF-CEM > 100 µM | 786-0 > 100 µM | UACC-62 > 100 µM | HL-60 > 100 µM | COLO 205 > 100 µM | NCI-H23 > 100 µM | HCT-116 > 100 µM | M14 > 100 µM | U-251 > 100 µM | NCI-H460 > 100 µM | OVCAR-4 > 100 µM
